pEC50: −log10 of the molar value.
Target: Nuclear receptor ROR-alpha (Homo sapiens) (UniProt P35398)
Assay: RORA ligand-binding domain transactivation agonists – cell-based, CHO-K1, Gal4-RORA LBD, luciferase luminescence, dose response (AID 681)
Settings: CHO-K1 Gal4-RORA LBD luciferase reporter

Nuclear receptor ROR-alpha (Homo sapiens), sequence (P35398 whole entry, looked up, the tested form may be a part): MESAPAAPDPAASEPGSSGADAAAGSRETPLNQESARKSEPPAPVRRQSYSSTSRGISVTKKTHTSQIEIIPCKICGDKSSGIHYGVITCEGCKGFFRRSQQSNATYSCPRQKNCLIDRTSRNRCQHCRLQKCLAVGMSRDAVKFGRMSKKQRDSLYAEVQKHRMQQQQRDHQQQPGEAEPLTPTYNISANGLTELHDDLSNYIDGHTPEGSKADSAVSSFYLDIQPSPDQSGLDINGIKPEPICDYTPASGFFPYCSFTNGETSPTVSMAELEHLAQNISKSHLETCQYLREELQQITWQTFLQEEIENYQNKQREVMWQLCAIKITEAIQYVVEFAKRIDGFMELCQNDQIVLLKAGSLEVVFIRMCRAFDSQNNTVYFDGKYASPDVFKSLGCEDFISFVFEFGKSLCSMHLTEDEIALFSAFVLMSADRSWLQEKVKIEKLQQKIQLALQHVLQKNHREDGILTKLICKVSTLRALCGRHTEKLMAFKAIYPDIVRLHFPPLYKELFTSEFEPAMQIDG

Row | pEC50 | SMILES
1 | 5.44 | O=C1COc2ccc(OCc3ccc(F)cc3)cc21
2 | 6.31 | CCOc1ccc(/C=C\C(C)=N\O)cc1
3 | 5.87 | C=CCOc1ccc(/C=C/C(C)=N\O)cc1

From PubChem BioAssay AID681 (The Scripps Research Institute Molecular Screening Center, 2007)
